Measured values published in ChEMBL document CHEMBL1201862, “PubChem BioAssay data set” (2004).
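Cells were grown in 96-well plates and exposed to each compound for 48 hours at five concentrations; endpoints were interpolated linearly between bracketing concentrations, or set to the highest concentration if not reached. The concentration for 50% growth inhibition is given as GI50.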 Calls of active or inactive are those of the source. Cut-off read from the data, not from the text of the source: active = GI50 up to about 1.1 µM and inactive = higher.

Tests used:
Assay in all cases: NCI anticancer screen, dose series, 48 h
[1] = tested on: SN12C
[2] = tested on: OVCAR-5
[3] = tested on: RXF 393
[4] = tested on: A549
[5] = tested on: CCRF-CEM
[6] = tested on: HCC 2998
[7] = tested on: SK-OV-3
[8] = tested on: HL-60
[9] = tested on: 786-0
[10] = tested on: HOP-62
[11] = tested on: ACHN
[12] = tested on: EKVX
[13] = tested on: SF-268
[14] = tested on: NCI-H226
[15] = tested on: OVCAR-3
[16] = tested on: NCI-H522
[17] = tested on: HOP-92

Row | SMILES | GI50 [1] | GI50 [2] | GI50 [3] | GI50 [4] | GI50 [5] | GI50 [6] | GI50 [7] | GI50 [8] | GI50 [9] | GI50 [10] | GI50 [11] | GI50 [12] | GI50 [13] | GI50 [14] | GI50 [15] | GI50 [16] | GI50 [17]
1 | CN(C)CCNC(=O)Cc1ccccc1Nc1c(Cl)cccc1Cl | 15.1 µM (inactive) | 11.7 µM (inactive) | 15.3 µM (inactive) | 18 µM (inactive) | 14.3 µM (inactive) | 11.5 µM (inactive) | 17.6 µM (inactive) | 14.7 µM (inactive) | 12.2 µM (inactive) | 15 µM (inactive) | 19 µM (inactive) | 17.4 µM (inactive) | 18.2 µM (inactive) | 17.9 µM (inactive) | 17.2 µM (inactive) | – | –
2 | Cc1ccc(NC(=O)CCC(=O)C(C#N)c2ccc(Cl)cc2)cc1C (stereo not drawn) | > 100 µM (inactive) | > 100 µM (inactive) | > 100 µM (inactive) | > 100 µM (inactive) | > 100 µM (inactive) | > 100 µM (inactive) | – | > 100 µM (inactive) | > 100 µM (inactive) | > 100 µM (inactive) | > 100 µM (inactive) | > 100 µM (inactive) | > 100 µM (inactive) | > 100 µM (inactive) | > 100 µM (inactive) | > 100 µM (inactive) | > 100 µM (inactive)
3 | O=c1[nH]cc(C(F)(C(F)(F)F)C(F)(F)F)c(=O)[nH]1 | > 100 µM (inactive) | > 100 µM (inactive) | > 100 µM (inactive) | > 100 µM (inactive) | > 100 µM (inactive) | – | > 100 µM (inactive) | > 100 µM (inactive) | > 100 µM (inactive) | > 100 µM (inactive) | > 100 µM (inactive) | > 100 µM (inactive) | > 100 µM (inactive) | > 100 µM (inactive) | > 100 µM (inactive) | > 100 µM (inactive) | > 100 µM (inactive)
4 | COC(=O)C1CC/C(=N/c2ccc(C)cc2C)N1 (stereo not drawn) | > 100 µM (inactive) | > 100 µM (inactive) | – | > 100 µM (inactive) | > 100 µM (inactive) | > 100 µM (inactive) | > 100 µM (inactive) | > 100 µM (inactive) | > 100 µM (inactive) | > 100 µM (inactive) | > 100 µM (inactive) | > 100 µM (inactive) | > 100 µM (inactive) | > 100 µM (inactive) | > 100 µM (inactive) | > 100 µM (inactive) | > 100 µM (inactive)
5 | CCOC(=N)CC(=O)Nc1ccccc1CC | > 100 µM (inactive) | > 100 µM (inactive) | > 100 µM (inactive) | > 100 µM (inactive) | > 100 µM (inactive) | 98.9 µM (inactive) | > 100 µM (inactive) | > 100 µM (inactive) | > 100 µM (inactive) | > 100 µM (inactive) | > 100 µM (inactive) | > 100 µM (inactive) | > 100 µM (inactive) | > 100 µM (inactive) | > 100 µM (inactive) | > 100 µM (inactive) | –
6 | CC1=C(C(=O)Nc2ccc([N+](=O)[O-])cc2)C(c2ccc3c(c2)OCO3)C(C(=O)Nc2ccc([N+](=O)[O-])cc2)=C(C)N1 | 38.3 µM (inactive) | 59.7 µM (inactive) | 25.3 µM (inactive) | 24.2 µM (inactive) | – | 7.05 µM (inactive) | > 100 µM (inactive) | – | 14.1 µM (inactive) | 37.6 µM (inactive) | 10.1 µM (inactive) | 8.2 µM (inactive) | > 100 µM (inactive) | 14.7 µM (inactive) | 6.43 µM (inactive) | 24.1 µM (inactive) | 4.08 µM (inactive)
7 | O=c1[nH]c(-c2ccccc2)nc2cc(Cl)ccc12 | – | > 100 µM (inactive) | > 100 µM (inactive) | > 100 µM (inactive) | > 100 µM (inactive) | > 100 µM (inactive) | > 100 µM (inactive) | > 100 µM (inactive) | > 100 µM (inactive) | > 100 µM (inactive) | > 100 µM (inactive) | > 100 µM (inactive) | – | 73.3 µM (inactive) | > 100 µM (inactive) | – | –
8 | CC(C)NCC(O)COC(=O)c1cccs1 (stereo not drawn) | > 100 µM (inactive) | > 100 µM (inactive) | > 100 µM (inactive) | > 100 µM (inactive) | > 100 µM (inactive) | > 100 µM (inactive) | > 100 µM (inactive) | > 100 µM (inactive) | > 100 µM (inactive) | > 100 µM (inactive) | > 100 µM (inactive) | > 100 µM (inactive) | > 100 µM (inactive) | – | > 100 µM (inactive) | > 100 µM (inactive) | > 100 µM (inactive)
9 | Cc1cc(=O)oc2cc(OCCCOc3ccc4c(C)cc(=O)oc4c3)ccc12 | > 100 µM (inactive) | – | > 100 µM (inactive) | > 100 µM (inactive) | > 100 µM (inactive) | > 100 µM (inactive) | – | > 100 µM (inactive) | 59.8 µM (inactive) | 63.8 µM (inactive) | > 100 µM (inactive) | > 100 µM (inactive) | > 100 µM (inactive) | > 100 µM (inactive) | > 100 µM (inactive) | – | –
10 | COc1ccc(O)c(C#N)c1C#N | > 100 µM (inactive) | > 100 µM (inactive) | > 100 µM (inactive) | > 100 µM (inactive) | > 100 µM (inactive) | > 100 µM (inactive) | > 100 µM (inactive) | > 100 µM (inactive) | > 100 µM (inactive) | > 100 µM (inactive) | > 100 µM (inactive) | > 100 µM (inactive) | > 100 µM (inactive) | > 100 µM (inactive) | > 100 µM (inactive) | > 100 µM (inactive) | –
11 | Cn1nc(-c2ccccc2)c(C(=O)/C=C/c2ccc(F)cc2)c(N2CCCCC2)c1=O | 8.39 µM (inactive) | – | 2.53 µM (inactive) | 5.13 µM (inactive) | 2.61 µM (inactive) | – | 15 µM (inactive) | 0.759 µM (active) | 4.62 µM (inactive) | – | 12.7 µM (inactive) | 16.3 µM (inactive) | 6.35 µM (inactive) | – | – | 5.9 µM (inactive) | 3.85 µM (inactive)
12 | O=C(CCn1[nH]c(=O)c(Cl)c(Cl)c1=O)NNC(=O)C[n+]1ccccc1 | > 100 µM (inactive) | > 100 µM (inactive) | > 100 µM (inactive) | > 100 µM (inactive) | > 100 µM (inactive) | > 100 µM (inactive) | > 100 µM (inactive) | > 100 µM (inactive) | > 100 µM (inactive) | > 100 µM (inactive) | > 100 µM (inactive) | > 100 µM (inactive) | > 100 µM (inactive) | > 100 µM (inactive) | > 100 µM (inactive) | > 100 µM (inactive) | –
13 | O=C(O)CN(c1ccccc1)S(=O)(=O)c1ccc(NC(=O)c2ccccc2)cc1 | > 100 µM (inactive) | > 100 µM (inactive) | > 100 µM (inactive) | > 100 µM (inactive) | > 100 µM (inactive) | – | > 100 µM (inactive) | > 100 µM (inactive) | > 100 µM (inactive) | – | > 100 µM (inactive) | > 100 µM (inactive) | > 100 µM (inactive) | – | – | > 100 µM (inactive) | > 100 µM (inactive)
